Measurements from patent US20190270733A1, “Quinoline and Isoquinoline Based HDAC Inhibitors and Methods of Use Thereof” (Reaction Biology Corp., priority 2018, published 2019).
pIC50: −log10 of the molar value. Values joined by “and” are separate entries in the source; they are usually repeats but may differ in a detail not shown here. Equal entries are not always repeated. Where two headings read alike, the source gives them in different places.

What was measured:
Human HDAC2 = target: T1, Human HDAC2 (Homo sapiens, UniProt Q92769); experiment: Biochemical HDAC assay, HDAC2; conditions: incubation time 120 min
T1 construct: full-length with a C-terminal His-tag; His-tag (C); made in house
T1 sequence (Q92769 whole entry): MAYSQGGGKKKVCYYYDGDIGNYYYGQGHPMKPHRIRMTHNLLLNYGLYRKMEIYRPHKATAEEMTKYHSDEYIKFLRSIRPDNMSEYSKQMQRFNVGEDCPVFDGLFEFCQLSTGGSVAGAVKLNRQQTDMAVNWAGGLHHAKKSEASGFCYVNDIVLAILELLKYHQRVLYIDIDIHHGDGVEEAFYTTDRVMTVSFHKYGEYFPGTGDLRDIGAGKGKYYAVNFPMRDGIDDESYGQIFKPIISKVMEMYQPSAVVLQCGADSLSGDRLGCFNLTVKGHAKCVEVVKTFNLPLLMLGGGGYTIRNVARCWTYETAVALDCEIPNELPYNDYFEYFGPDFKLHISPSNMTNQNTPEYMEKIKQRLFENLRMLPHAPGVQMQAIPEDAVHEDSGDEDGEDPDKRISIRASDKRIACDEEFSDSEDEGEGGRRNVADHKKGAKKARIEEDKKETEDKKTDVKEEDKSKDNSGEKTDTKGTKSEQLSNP
Procedure: Human HDAC2 (GenBank Accession No. NM_001527), full-length with a C-terminal His-tag, MW=56 kDa, was expressed in a baculovirus expression system.
(§1) • I. Compound handling: Testing compounds were dissolved in 100% DMSO to a specific concentration. The serial dilution was conducted by epMotion 5070 in DMSO. • II. HDAC reaction buffer: 50 mM Tris-HCl, pH8.0, 137 mM NaCl, 2.7 mM KCl, and 1 mM MgCl2, Added fresh: 1 mg/ml BSA, 1% DMSO. • III. Substrate: Fluorogenic HDAC General Substrate for HDAC1, 2, 3, 6, 10, 11 ans Sirt1, 2 and 3: Arg-His-Lys-Lys(Ac); HDAC8 only substrate: Arg-His-Lys(Ac)-Lys(Ac); Class2A Substrate (HDAC4, 5, 7 and 9): Acetyl-Lys(trifluoroacetyl)-AMC; Sirt5 substrate: Ac-Lys(succinyl)-AMC. • IV. General Reaction Procedure: (Standard IC50 determination) • a. Delivered 2× enzyme in wells of reaction plate except No Enzyme (No En) control wells. Add buffer in No En wells. • b. Delivered compounds in 100% DMSO into the enzyme mixture by Acoustic technology (Echo550; nanoliter range). Spin down and pre-incubation. • c. Delivered 2× Substrate Mixture (Fluorogenic HDAC Substrate and co-factor (500 μM of Nicotinamide adenine dinucleotide (NAD^+) in all Sirt assay) in all reaction wells to initiate the reaction. Spin and shake. • d. Incubated for 1-2 hr. at 30° C. with seal. • e. Added Developer with Trichostatin A (or TMP269 or NAD^+) to stop the reaction and to generate fluorescent color. • f. Fluorescence was read (excitatory, 360; emission, 460) using the EnVision Multilabel Plate Reader (Perkin Elmer) • g. Endpoint reading was taken for analysis after the development reaches plateau. • V. Data Analysis: The percentages of enzyme activity (relative to DMSO controls) and IC50 values were calculated using the GraphPad Prism 4 program based on a sigmoidal dose-response equation.
(§2) Compounds with indicated doses was tested in the biochemical assays of HDAC1, HDAC2, HDAC3, HDAC4, HDAC5, HDAC6, HDAC7, HDAC8, HDAC9, HDAC10, or HDAC11 enzyme. The incubation time in HDAC1/2 assays are 120 min, and that for other HDACs are 10 min. The curve fit and IC50 values were calculated using the GraphPad Prism 4 program based on a sigmoidal dose-response equation.

[1] = target: T2, Complex of human HDAC3 and human NCOR2 (Homo sapiens, UniProt O15379); experiment: Biochemical HDAC assay, HDAC3; conditions: incubation time 10 min
T2 construct: full-length with a C-terminal His tag; His tag (C); made in house
T2 sequence (O15379 whole entry): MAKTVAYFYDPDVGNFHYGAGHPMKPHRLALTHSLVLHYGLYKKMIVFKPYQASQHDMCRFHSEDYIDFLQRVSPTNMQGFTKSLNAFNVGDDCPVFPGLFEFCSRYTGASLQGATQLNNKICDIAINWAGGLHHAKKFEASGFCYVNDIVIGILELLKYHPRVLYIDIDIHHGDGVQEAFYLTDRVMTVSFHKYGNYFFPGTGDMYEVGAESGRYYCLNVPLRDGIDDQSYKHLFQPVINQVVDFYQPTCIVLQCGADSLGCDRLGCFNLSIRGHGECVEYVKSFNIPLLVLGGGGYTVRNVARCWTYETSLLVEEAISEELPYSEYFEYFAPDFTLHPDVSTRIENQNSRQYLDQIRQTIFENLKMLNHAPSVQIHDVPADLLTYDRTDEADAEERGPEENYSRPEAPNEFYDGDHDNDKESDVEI
T2 sequence (Q9Y618 395-489 partner limits assumed): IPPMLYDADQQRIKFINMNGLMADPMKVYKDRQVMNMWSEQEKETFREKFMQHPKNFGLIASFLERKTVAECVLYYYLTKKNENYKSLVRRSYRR
Procedure: Complex of human HDAC3 (GenBank Accession No. NM_003883), full-length with a C-terminal His tag, MW=49.7 kDa, and human NCOR2 (amino acid 395-489) (GenBank Accession No. NM_006312), N-terminal GST tag, MW=37.6 kDa, was co-expressed in a baculovirus expression system.
as §1, §2

[2] = Mouse plasma PK (IV and PO dosing); format: in vivo, Male C57 Bl/6J mice; conditions: for AUC(0-inf): read-out: AUCINF—obs (converted); for MRT inf: read-out: MRTINF—obs
Procedure: In vivo PK (pharmacokinetics) studies were run at Scripps Florida DMPK Core facility. Mouse plasma PK data was obtained using the compound of Example 5 (N-(2-amino-5-(thiophen-2-yl)phenyl)-2-oxo-1,2,3,4-tetrahydroquinoline-6-carboxamide)
Dose: 1 mg/kg intravenous (IV), 7 mg/kg oral dosing (PO)
Formulation: 0.1 mg/mL (IV) and 1 mg/mL (PO) solution in 10/10/80 DMSO/Tween80/Water
Mice Info: Male C57 Bl/6J
Plasma PK were evaluated in mice after administration of compound Example 5. […] (Tmax), maximal concentration (Cmax), observed clearance (Cl_obs), mean residential time (MRT), and observed volume distribution (Vss_obs) were also quantified (Tables 2 and 3).

[3] = Brain exposure experiment in mice; format: in vivo; conditions: 1 hour after exposure
Procedure: Brain exposure experiments were performed wherein mice were exposed to compound Example 5 at an IV dosage of 1 mg/kg (Table 4).

[4] = IV 1 mg/kg, mouse plasma, average
[5] = IV 1 mg/kg, mouse plasma, individual mice, 1 mg/kg
[6] = IV administration, mouse plasma
[7] = PO 7 mg/kg, mouse plasma, average
[8] = PO 7 mg/kg, mouse plasma, individual mice, 7 mg/kg
[9] = male, C57 Bl/6J, mouse, plasma, iv, 1 mg/kg, IV 1 mg/kg, mouse plasma, average
[10] = male, C57 Bl/6J, mouse, plasma, iv, 1 mg/kg, IV 1 mg/kg, mouse plasma, individual mice
[11] = male, C57 Bl/6J, mouse, plasma, po, 7 mg/kg, PO 7 mg/kg, mouse plasma, average
[12] = male, C57 Bl/6J, mouse, plasma, po, 7 mg/kg, PO 7 mg/kg, mouse plasma, individual mice
[13] = IV 1 mg/kg, individual mice, 1 mg/kg

pIC50 (Human HDAC2): 7.47 | pIC50 [1]: < 5.00 | AUC (% Extrap) [2, 4]: 1.42% | Cl_obs [2, 4]: 0.32 L/h/kg | Vss_obs [2, 4]: 0.40 L/kg | AUC (% Extrap) [2, 5]: 1.31% and 1.23% and 1.71% | Cmax [2, 5]: 2480 ng/mL and 4540 ng/mL and 5820 ng/mL | MRTINF—obs [2, 5]: 1.19 h and 1.14 h | T1/2 [2, 5]: 1.52 h and 1.59 h | Tmax [2, 5]: 0.08 hr (2×) and 0.25 hr | Vss_obs [2, 5]: 0.48 L/kg and 0.39 L/kg and 0.33 L/kg | Cmax ([2]; IV 1 mg/kg, mouse plasma, individual mice, 1 mg/kg, read-out: Cmax): 6.83 µM and 12.5 µM and 16 µM | clearance (in words) [2, 6]: low clearance | volume (in words) [2, 6]: low volume | AUC (% Extrap) [2, 7]: 9.95% | Cl_obs [2, 7]: 1.553 L/h/kg | AUC (% Extrap) [2, 8]: 6.21% and 14.68% and 8.96% | Cmax [2, 8]: 1590 ng/mL and 1620 ng/mL | T1/2 [2, 8]: 3.30 h and 2.62 h | Tmax [2, 8]: 1.00 hr and 0.25 hr (2×) | Cmax ([2]; PO 7 mg/kg, mouse plasma, individual mice, 7 mg/kg, read-out: Cmax): 4.38 µM and 4.46 µM | AUC ([2]; male, C57 Bl/6J, 1 mg/kg, IV administration, mouse plasma, read-out: AUC): 8.5 µM·h | AUC ([2]; male, C57 Bl/6J, 7 mg/kg, PO dosing, mouse plasma, read-out: AUC (area under the curve)): 11 to 12 µM·h | AUC(0-t) [2, 9]: 8.53 µM·h and 3100 ng·h/mL | AUC(0-inf) [2, 9]: 3.14 µg·h/mL | Cmax ([2]; male, C57 Bl/6J, mouse, plasma, iv, 1 mg/kg, IV 1 mg/kg, mouse plasma, average, read-out: Cmax): 4280 ng/mL and 11.8 µM | MRT inf [2, 9]: 1.24 h | half-life ([2]; male, C57 Bl/6J, mouse, plasma, iv, 1 mg/kg, IV 1 mg/kg, mouse plasma, average, read-out: T1/2 (converted)): 1.48 h | Tmax ([2]; male, C57 Bl/6J, mouse, plasma, iv, 1 mg/kg, IV 1 mg/kg, mouse plasma, average, read-out: Tmax): 0.14 h | AUC(0-t) [2, 10]: 7.88 µM·h and 2860 ng·h/mL | AUC(0-inf) [2, 10]: 2.9 µg·h/mL | MRT inf [2, 10]: 1.39 h | half-life ([2]; male, C57 Bl/6J, mouse, plasma, iv, 1 mg/kg, IV 1 mg/kg, mouse plasma, individual mice, read-out: T1/2 (converted)): 1.34 h | half-life ([2]; male, C57 Bl/6J, mouse, plasma, iv, 1 mg/kg, IV administration, mouse plasma, read-out: half-life (T1/2) (converted)): 1.5 h | AUC(0-t) [2, 11]: 11.8 µM·h and 4270 ng·h/mL | AUC(0-inf) [2, 11]: 4.71 µg·h/mL | Cmax ([2]; male, C57 Bl/6J, mouse, plasma, po, 7 mg/kg, PO 7 mg/kg, mouse plasma, average, read-out: Cmax): 1960 ng/mL and 5.4 µM | half-life ([2]; male, C57 Bl/6J, mouse, plasma, po, 7 mg/kg, PO 7 mg/kg, mouse plasma, average, read-out: T1/2 (converted)): 2.66 h | Tmax ([2]; male, C57 Bl/6J, mouse, plasma, po, 7 mg/kg, PO 7 mg/kg, mouse plasma, average, read-out: Tmax): 0.5 h | AUC(0-t) [2, 12]: 15.9 µM·h and 5760 ng·h/mL | AUC(0-inf) [2, 12]: 6.14 µg·h/mL | Cmax ([2]; male, C57 Bl/6J, mouse, plasma, po, 7 mg/kg, PO 7 mg/kg, mouse plasma, individual mice, read-out: Cmax): 2670 ng/mL and 7.36 µM | half-life ([2]; male, C57 Bl/6J, mouse, plasma, po, 7 mg/kg, PO 7 mg/kg, mouse plasma, individual mice, read-out: T1/2 (converted)): 2.05 h | half-life ([2]; male, C57 Bl/6J, mouse, plasma, po, 7 mg/kg, PO dosing, mouse plasma, read-out: half-life (converted)): 2.7 h | bioavailability ([2]; male, C57 Bl/6J, plasma, PO 7 mg/kg vs IV 1 mg/kg, mouse, read-out: % F (bioavailability)): 20% | brain penetration (in words) ([3]; IV 1 mg/kg): no brain penetration | Brain concentration [3, 13]: 0 µg/mL | concentration at 1 h ([3]; IV 1 mg/kg, individual mice, 1 mg/kg, read-out: Brain concentration): 0.00 µM | concentration at 1 h ([3]; mouse, brain, iv, 1 mg/kg, average, read-out: Brain concentration): 0 ng/mL and 0 nM | concentration at 1 h ([3]; mouse, brain, iv, 1 mg/kg, individual mice, read-out: Brain concentration): 0 ng/mL and 0 nM | concentration at 1 h ([3]; mouse, plasma, iv, 1 mg/kg, average, read-out: Plasma concentration): 267 ng/mL and 730 nM | concentration at 1 h ([3]; mouse, plasma, iv, 1 mg/kg, individual mice, read-out: Plasma concentration): 324 ng/mL and 890 nM
SMILES: Nc1ccc(-c2cccs2)cc1NC(=O)c1ccc2c(c1)CCC(=O)N2 [Example 5, N-(2-amino-5-(thiophen-2-yl)phenyl)-2-oxo-1,2,3,4-tetrahydroquinoline-6-carboxamide]
AUCINF—obs [2, 5]: 184402 ng·min/mL and 207009 ng·min/mL | AUClast [2, 5]: 8.36 μM · hr and 9.34 μM · hr and 182140 min * ng/mL and 203467 min * ng/mL | Cl_obs [2, 5]: 0.345 L/h/kg and 0.325 L/h/kg and 0.29 L/h/kg | AUCINF—obs [2, 8]: 227793 ng·min/mL and 250553 ng·min/mL | AUClast [2, 8]: 8.92 μM · hr and 10.47 μM · hr and 194363 min * ng/mL and 228113 min * ng/mL | Cl_obs [2, 8]: 1.139 L/h/kg and 1.844 L/h/kg and 1.676 L/h/kg | Plasma concentration [3, 13]: 206 ng/mL and 0.57 μM and 270 ng/mL and 0.74 μM
